Literature values in patent US20210379148A1, “REGULATING MUSCLE PHYSIOLOGY AND ENERGY METABOLISM USING CRYM” (University Of Maryland, Baltimore, priority 2020, published 2021).

System: CRYM protein
Conditions: chemical alone

Row | Compound | expression of CRYM protein
1 | CN[C@@H](C)Cc1ccccc1 [Methamphetamine] | Methamphetamine results in increased expression of CRYM
2 | C[C@@H]1Cc2c(Cl)cc(C(=O)N[C@@H](Cc3ccccc3)C(=O)O)c(O)c2C(=O)O1 [ochratoxin A] | ochratoxin A results in increased expression of CRYM protein

Target: thyroid hormone receptors (TR) α and β
Conditions: read-out: KD, binding to thyroid hormone receptors (TR) α and β

Row | Compound | Kd [nM]
3 | N[C@@H](Cc1cc(I)c(Oc2cc(I)c(O)c(I)c2)c(I)c1)C(=O)O [T4] | 2

Target: μ-crystallin ketimine reductase (Homo sapiens, UniProt Q14894)
Sequence (Q14894 whole entry): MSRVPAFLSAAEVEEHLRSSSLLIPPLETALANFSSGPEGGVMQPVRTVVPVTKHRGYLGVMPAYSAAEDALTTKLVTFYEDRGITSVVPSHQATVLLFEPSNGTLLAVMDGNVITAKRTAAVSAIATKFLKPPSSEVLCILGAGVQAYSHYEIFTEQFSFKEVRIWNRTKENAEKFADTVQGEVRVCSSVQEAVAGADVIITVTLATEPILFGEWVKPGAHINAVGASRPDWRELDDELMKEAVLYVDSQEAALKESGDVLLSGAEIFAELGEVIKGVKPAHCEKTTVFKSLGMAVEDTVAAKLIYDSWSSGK
Conditions: read-out: K1, inhibition of μ-crystallin's activity as a ketimine reductase

Row | Compound | Ki [nM]
4 | N[C@@H](Cc1cc(I)c(Oc2cc(I)c(O)c(I)c2)c(I)c1)C(=O)O [T4] | 0.75

System: CRYM mRNA
Conditions: not given

Row | Compound | expression of CRYM mRNA
5 | [K+].[K+].[O]=[Cr](=[O])([O-])[O][Cr](=[O])(=[O])[O-] [Potassium Dichromate] | Potassium Dichromate results in increased expression of
6 | C[C@]12CCC(=O)C[C@@H]1CC[C@@H]1[C@@H]2CC[C@]2(C)[C@@H](O)CC[C@@H]12 [Dihydrotestosterone] | Dihydrotestosterone results in increased expression of CRYM

Same assay, conditions: Methionine deficiency co-treated with Choline deficiency co-treated with Folic Acid deficiency

Row | Compound | expression of CRYM mRNA
7 | Nc1nc2ncc(CNc3ccc(C(=O)N[C@@H](CCC(=O)O)C(=O)O)cc3)nc2c(=O)[nH]1 [Folic Acid] | treated with Folic Acid deficiency] results in increased
8 | CSCC[C@H](N)C(=O)O [Methionine] | treated with Folic Acid deficiency] results in increased

Same assay, conditions: NOG protein co-treated with entinostat, dorsomorphin and 4-(5-benzo(1,3)dioxol-5-yl-4-pyridin-2-yl-1H-imidazol-2-yl)benzamide

Row | Compound | expression of CRYM mRNA
9 | Nc1ccccc1NC(=O)c1ccc(CNC(=O)OCc2cccnc2)cc1 [entinostat] | pyridin-2-yl-1H-imidazol-2-yl)benzamide] results in increased
10 | NC(=O)c1ccc(-c2nc(-c3ccccn3)c(-c3ccc4c(c3)OCO4)[nH]2)cc1 [4-(5-benzo(1,3)dioxol-5-yl-4-pyridin-2-yl-1H-imidazol-2-yl)benzamide] | pyridin-2-yl-1H-imidazol-2-yl)benzamide] results in increased

Same assay, conditions: Oxaliplatin co-treated with Topotecan

Row | Compound | expression of CRYM mRNA
11 | O=C1[O][Pt]2([NH][C@@H]3CCCC[C@H]3[NH]2)[O]C1=O [Oxaliplatin] | [Oxaliplatin co-treated with Topotecan] results in increased

Same assay, conditions: chemical alone

Row | Compound | expression of CRYM mRNA
12 | CCC=O [propionaldehyde] | propionaldehyde results in increased expression of CRYM
13 | Clc1cc2c(cc1Cl)Oc1cc(Cl)c(Cl)cc1O2 [Tetrachlorodibenzodioxin] | Tetrachlorodibenzodioxin results in increased expression of
14 | CCCc1cc(=O)[nH]c(=S)[nH]1 [Propylthiouracil] | Propylthiouracil results in increased expression of CRYM
15 | CNC(=O)O[C@@H](CC(C)C)c1nc([C@H]2OC(=O)/C=C/C/C(C)=C/[C@@H](O)[C@@H](C)\C=C(C)/C=C(C)\C=C\[C@@H](O)[C@H](C)[C@H](OC)/C(C)=C/C=C/[C@@H]2C)cs1 [archazolid B] | archazolid B results in increased expression of CRYM mRNA
16 | CCCCC=O [pentanal] | pentanal results in increased expression of CRYM mRNA
17 | CC1=C(/C=C/C(C)=C/C=C/C(C)=C/C(=O)Nc2ccc(O)cc2)C(C)(C)CCC1 [Fenretinide] | Fenretinide results in increased expression of CRYM mRNA
18 | CCCC=O [butyraldehyde] | butyraldehyde results in increased expression of CRYM
19 | CC1=C(/C=C/C(C)=C/C=C/C(C)=C/C(=O)O)C(C)(C)CCC1 [Tretinoin] | Tretinoin results in increased expression of CRYM mRNA
20 | c1ccc2c(c1)ccc1cc3c(ccc4ccccc43)cc12 [1,2,5,6-dibenzanthracene] | 1,2,5,6-dibenzanthracene results in increased expression of
21 | CC(N)Cc1ccccc1 (stereo not drawn) [Amphetamine] | Amphetamine results in increased expression of CRYM
22 | CCO [Ethanol] | Ethanol results in increased expression of CRYM mRNA
23 | C=CC=C [1,3-butadiene] | 1,3-butadiene results in increased expression of CRYM
24 | O=S(=O)(c1ccc(O)cc1)c1ccc(O)cc1 [bis(4-hydroxyphenyl)sulfone] | bis(4-hydroxyphenyl)sulfone results in increased expression
25 | O=C1[O][Pt]2([NH][C@@H]3CCCC[C@H]3[NH]2)[O]C1=O [Oxaliplatin] | Oxaliplatin results in increased expression of CRYM mRNA
26 | O=c1c(O)c(-c2ccc(O)c(O)c2)oc2cc(O)cc(O)c12 [Quercetin] | Quercetin results in increased expression of CRYM mRNA
27 | Clc1cnc(Oc2ccc(Oc3ncc(Cl)cc3Cl)cc2)c(Cl)c1 [1,4-bis(2-(3,5-dichloropyridyloxy))benzene] | increased expression of CRYM mRNA
28 | Oc1ccc(Cc2ccc(O)cc2)cc1 [bisphenol F] | bisphenol F results in increased expression of CRYM mRNA
29 | CC[C@@]1(O)C(=O)OCc2c1cc1n(c2=O)Cc2cc3c(CN(C)C)c(O)ccc3nc2-1 [Topotecan] | Topotecan results in increased expression of CRYM mRNA
30 | Nc1ccccc1NC(=O)c1ccc(CNC(=O)OCc2cccnc2)cc1 [entinostat] | entinostat results in increased expression of CRYM mRNA
31 | CCCC(CCC)C(=O)O [Valproic Acid] | Valproic Acid results in increased expression of CRYM
32 | ClC(Cl)(Cl)Cl [Carbon Tetrachloride] | Carbon Tetrachloride results in increased expression of
33 | CCCCOC(=O)c1ccccc1C(=O)OCCCC [Dibutyl Phthalate] | Dibutyl Phthalate results in increased expression of CRYM
34 | c1ccc2c(c1)cc1ccc3cccc4ccc2c1c34 [Benzo(a)pyrene] | Benzo(a)pyrene results in increased expression of CRYM
35 | CN[C@@H](Cc1c[nH]c2ccccc12)C(=O)O [abrine] | abrine results in increased expression of CRYM mRNA

System: skeletal muscles (soleus, EDL)
Conditions: rats, thyrotoxic doses of T3 and T4

Row | Compound | effect on fast twitch extensor digitorum longus (EDL) muscles
36 | N[C@@H](Cc1cc(I)c(Oc2ccc(O)c(I)c2)c(I)c1)C(=O)O [T3, triiodothyronine] | no effect
37 | N[C@@H](Cc1cc(I)c(Oc2cc(I)c(O)c(I)c2)c(I)c1)C(=O)O [T4] | no effect

Same assay, conditions: rats, thyrotoxic doses of T3 and T4; without accompanying changes in contractile velocity

Row | Compound | effect on slow twitch soleus muscle
38 | N[C@@H](Cc1cc(I)c(Oc2ccc(O)c(I)c2)c(I)c1)C(=O)O [T3, triiodothyronine] | shift in slow twitch soleus muscle from slow to faster characteristics
39 | N[C@@H](Cc1cc(I)c(Oc2cc(I)c(O)c(I)c2)c(I)c1)C(=O)O [T4] | shift in slow twitch soleus muscle from slow to faster characteristics
